Experimental data: US20250090540A1, “PI3K-ALPHA INHIBITORS AND METHODS OF USE THEREOF” (Relay Therapeutics, Inc., priority 2021, published 2025)

Columns and labels:
[1] = target: H1047R PIK3CA enzyme (Homo sapiens, UniProt P42336, H1047R); assay: ADP-Glo Biochemical PIK3CA Kinase Assay; settings: ADP-Glo biochemical PIK3CA kinase assay
[2] = cells; settings: Homo sapiens, MCF-10A, read-out: MCF10A I50

Chain of H1047R PIK3CA enzyme (P42336 whole entry H1047R): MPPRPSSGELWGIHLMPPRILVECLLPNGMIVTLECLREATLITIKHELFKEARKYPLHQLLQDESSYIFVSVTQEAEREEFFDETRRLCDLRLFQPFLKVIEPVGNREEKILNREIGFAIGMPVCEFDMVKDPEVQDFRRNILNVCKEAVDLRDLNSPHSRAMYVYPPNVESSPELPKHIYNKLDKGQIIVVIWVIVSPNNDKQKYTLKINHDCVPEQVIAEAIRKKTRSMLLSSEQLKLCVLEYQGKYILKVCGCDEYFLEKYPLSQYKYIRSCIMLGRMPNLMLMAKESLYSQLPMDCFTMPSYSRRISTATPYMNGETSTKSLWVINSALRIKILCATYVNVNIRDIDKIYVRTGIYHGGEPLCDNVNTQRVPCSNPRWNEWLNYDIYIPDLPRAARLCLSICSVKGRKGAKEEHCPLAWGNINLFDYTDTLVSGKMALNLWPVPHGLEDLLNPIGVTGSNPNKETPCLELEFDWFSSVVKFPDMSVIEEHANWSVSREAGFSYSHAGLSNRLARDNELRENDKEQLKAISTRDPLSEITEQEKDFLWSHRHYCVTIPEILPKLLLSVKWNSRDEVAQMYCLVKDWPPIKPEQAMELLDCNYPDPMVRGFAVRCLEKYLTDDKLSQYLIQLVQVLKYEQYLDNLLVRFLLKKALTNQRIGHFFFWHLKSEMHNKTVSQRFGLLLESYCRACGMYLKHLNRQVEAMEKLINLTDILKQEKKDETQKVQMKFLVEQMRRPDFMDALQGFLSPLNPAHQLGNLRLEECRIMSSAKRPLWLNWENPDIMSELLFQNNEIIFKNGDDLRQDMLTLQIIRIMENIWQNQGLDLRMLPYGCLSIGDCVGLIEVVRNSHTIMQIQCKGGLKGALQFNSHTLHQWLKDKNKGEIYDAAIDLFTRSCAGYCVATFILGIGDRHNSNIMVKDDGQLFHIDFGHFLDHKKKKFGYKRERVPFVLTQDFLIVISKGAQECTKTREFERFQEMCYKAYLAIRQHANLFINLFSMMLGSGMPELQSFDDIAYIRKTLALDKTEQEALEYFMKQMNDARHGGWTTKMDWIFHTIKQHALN
Chain of H1047R PIK3CA enzyme (P27986 whole entry partner): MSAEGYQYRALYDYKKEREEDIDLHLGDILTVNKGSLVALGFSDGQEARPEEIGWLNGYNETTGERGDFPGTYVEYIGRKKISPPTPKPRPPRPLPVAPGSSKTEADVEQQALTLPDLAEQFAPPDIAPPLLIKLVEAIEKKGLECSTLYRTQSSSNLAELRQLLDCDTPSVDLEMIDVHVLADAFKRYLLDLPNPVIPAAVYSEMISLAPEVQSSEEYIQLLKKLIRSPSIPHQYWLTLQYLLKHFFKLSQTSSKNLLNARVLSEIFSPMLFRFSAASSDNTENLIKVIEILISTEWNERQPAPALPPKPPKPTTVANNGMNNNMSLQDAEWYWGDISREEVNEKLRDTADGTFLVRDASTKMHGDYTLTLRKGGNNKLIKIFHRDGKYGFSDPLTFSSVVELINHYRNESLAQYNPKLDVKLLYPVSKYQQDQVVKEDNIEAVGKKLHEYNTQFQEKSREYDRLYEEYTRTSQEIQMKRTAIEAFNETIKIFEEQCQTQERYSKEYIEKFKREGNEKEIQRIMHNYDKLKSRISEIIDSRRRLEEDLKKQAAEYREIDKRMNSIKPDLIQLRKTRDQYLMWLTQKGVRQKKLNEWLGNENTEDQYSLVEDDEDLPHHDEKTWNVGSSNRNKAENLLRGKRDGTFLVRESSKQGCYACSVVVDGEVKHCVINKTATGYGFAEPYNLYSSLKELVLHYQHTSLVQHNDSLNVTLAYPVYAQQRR

Cc1ccccc1Nc1ncc(C(=O)NC2CC(=O)N(C)C2)cc1NC(=O)c1csc2ccccc12 (stereo not shown) [I-434]
IC50 [1]: 100 to 500 nM
IC50 [2]: 5 to 10 µM

Cc1ccccc1Nc1ncc(N2CC(S(C)(=O)=O)C2)cc1NC(=O)c1csc2ccccc12 [I-436]
IC50 [1]: 500 to 1000 nM
IC50 [2]: 10 to 36 µM

CNC(=O)c1cnc(Nc2ccccc2C)c(NC(=O)c2cnn3cccc(Br)c23)c1 [I-468]
IC50 [1]: 1000 to 10000 nM
IC50 [2]: 10 to 36 µM

CNC(=O)c1cnc(Nc2ccccc2C)c(NC(=O)c2cc3c(Br)cccn3c2)c1 [I-486]
IC50 [1]: 100 to 500 nM
IC50 [2]: 10 to 36 µM

Cc1ccccc1Nc1ncc(C(=O)Nc2cccnn2)cc1NC(=O)c1csc2ccccc12 [I-496]
IC50 [1]: 500 to 1000 nM
IC50 [2]: 10 to 36 µM

CNC(=O)c1cnc(Nc2ccccc2C)c(NC(=O)C2(c3ccccc3Cl)CC2)c1 [I-499]
IC50 [1]: ≤ 100 nM
IC50 [2]: 10 to 36 µM

Cc1ccccc1Nc1ncc(C(=O)N[C@@H]2c3ccccc3C[C@@H]2O)cc1NC(=O)c1csc2ccccc12 [I-506]
IC50 [1]: 100 to 500 nM
IC50 [2]: 5 to 10 µM

Cc1ccccc1Nc1ncc(C(=O)Nc2cn(C)cn2)cc1NC(=O)c1csc2ccccc12 [I-508]
IC50 [1]: 100 to 500 nM
IC50 [2]: 10 to 36 µM

CNC(=O)c1cnc(Nc2ccccc2C)c(NC(=O)c2cc(Br)cc3c2cnn3C)c1 [I-510]
IC50 [1]: 100 to 500 nM
IC50 [2]: 10 to 36 µM

COc1cnccc1CCNC(=O)c1cnc(Nc2ccccc2C)c(NC(=O)c2csc3ccccc23)c1 [I-515]
IC50 [1]: 100 to 500 nM
IC50 [2]: 10 to 36 µM

Cc1ccccc1Nc1ncc(C(=O)NCC(F)F)cc1NC(=O)c1csc2ccccc12 [I-519]
IC50 [1]: ≤ 100 nM
IC50 [2]: 5 to 10 µM

CNC(=O)c1cnc(Nc2ccccc2C)c(NC(=O)c2n[nH]c3ccc(Br)cc23)c1 [I-520]
IC50 [1]: ≤ 100 nM
IC50 [2]: 10 to 36 µM

Cc1ccccc1Nc1ncc(C(=O)NCc2cnccc2C(F)(F)F)cc1NC(=O)c1csc2ccccc12 [I-525]
IC50 [1]: ≤ 100 nM
IC50 [2]: 10 to 36 µM

COC[C@@H](C)NC(=O)c1cnc(Nc2ccccc2C)c(NC(=O)c2csc3ccccc23)c1 [I-526]
IC50 [1]: 1000 to 10000 nM
IC50 [2]: 10 to 36 µM

CNC(=O)c1cnc(Nc2ccccc2C)c(NC(=O)c2cc(C#N)cc(C(F)(F)F)c2)c1 [I-527]
IC50 [1]: 100 to 500 nM
IC50 [2]: 5 to 10 µM

CNC(=O)c1cnc(Nc2ccccc2C)c(NC(=O)c2cccc3[nH]c(C(F)(F)F)nc23)c1 [I-530]
IC50 [1]: 100 to 500 nM
IC50 [2]: 10 to 36 µM

Cc1ccccc1Nc1ncc(C(=O)NCc2cnn(C(C)C)c2)cc1NC(=O)c1csc2ccccc12 [I-532]
IC50 [1]: 100 to 500 nM
IC50 [2]: 10 to 36 µM

Cc1ccccc1Nc1ncc(C(=O)N2CC(C#N)C2)cc1NC(=O)c1csc2ccccc12 [I-533]
IC50 [1]: 1000 to 10000 nM
IC50 [2]: 10 to 36 µM

Cc1ccccc1Nc1ncc(C(=O)NCc2ccc3c(c2)OCCO3)cc1NC(=O)c1csc2ccccc12 [I-534]
IC50 [1]: ≤ 100 nM
IC50 [2]: 10 to 36 µM

CNC(=O)c1cnc(Nc2ccccc2C)c(NC(=O)c2cnc(OC)c(C(F)(F)F)c2)c1 [I-535]
IC50 [1]: 1000 to 10000 nM
IC50 [2]: 10 to 36 µM

COc1ccnc(CNC(=O)c2cnc(Nc3ccccc3C)c(NC(=O)c3csc4ccccc34)c2)c1 [I-538]
IC50 [1]: 100 to 500 nM
IC50 [2]: 10 to 36 µM

Cc1ccccc1Nc1ncc(C(=O)Nc2ccc3cccnc3c2)cc1NC(=O)c1csc2ccccc12 [I-539]
IC50 [1]: 500 to 1000 nM
IC50 [2]: 36 to 100 µM

Cc1ccccc1Nc1ncc(C(=O)NCc2nc(C3CC3)no2)cc1NC(=O)c1csc2ccccc12 [I-540]
IC50 [1]: ≤ 100 nM
IC50 [2]: 1 to 5 µM

Cc1ccccc1Nc1ncc(C(=O)NC2CCC(F)(F)C2)cc1NC(=O)c1csc2ccccc12 (stereo not shown) [I-544]
IC50 [1]: 100 to 500 nM
IC50 [2]: 10 to 36 µM

Cc1ccccc1Nc1ncc(C(=O)N[C@H]2CCCOC2)cc1NC(=O)c1csc2ccccc12 [I-545]
IC50 [1]: 100 to 500 nM
IC50 [2]: 1 to 5 µM

Cc1ccccc1Nc1ncc(C(=O)N[C@H]2CC[C@@H](F)C2)cc1NC(=O)c1csc2ccccc12 [I-546]
IC50 [1]: ≤ 100 nM
IC50 [2]: 5 to 10 µM

Cc1ccccc1Nc1ncc(C(=O)N[C@@H]2CC[C@@H](F)C2)cc1NC(=O)c1csc2ccccc12 [I-547]
IC50 [1]: 100 to 500 nM
IC50 [2]: 5 to 10 µM

Cc1ccccc1Nc1ncc(C(=O)NCc2ccon2)cc1NC(=O)c1csc2ccccc12 [I-560]
IC50 [1]: ≤ 100 nM
IC50 [2]: 1 to 5 µM

Cc1ccccc1Nc1ncc(C(=O)NCc2cnc3c(C)cccn23)cc1NC(=O)c1csc2ccccc12 [I-561]
IC50 [1]: 100 to 500 nM
IC50 [2]: 10 to 36 µM

Cc1ccccc1Nc1ncc(C(=O)NCC2CCN(C)C(=O)C2)cc1NC(=O)c1csc2ccccc12 (stereo not shown) [I-563]
IC50 [1]: 100 to 500 nM
IC50 [2]: 10 to 36 µM

CNC(=O)c1cnc(Nc2ccccc2C)c(NC(=O)c2ccc3nnc(Br)n3c2)c1 [I-564]
IC50 [1]: 500 to 1000 nM
IC50 [2]: 10 to 36 µM

Cc1ccccc1Nc1ncc(C(=O)NC2NC(=O)c3ccccc32)cc1NC(=O)c1csc2ccccc12 (stereo not shown) [I-568]
IC50 [1]: ≤ 100 nM
IC50 [2]: 1 to 5 µM

Cc1ccccc1Nc1ncc(C(=O)NCC2CCNC(=O)C2)cc1NC(=O)c1csc2ccccc12 (stereo not shown) [I-569]
IC50 [1]: 100 to 500 nM
IC50 [2]: 10 to 36 µM

Cc1ccccc1Nc1ncc(C(=O)NCCn2ccnn2)cc1NC(=O)c1csc2ccccc12 [I-570]
IC50 [1]: 100 to 500 nM
IC50 [2]: 10 to 36 µM

Cc1ccccc1Nc1ncc(C(=O)N[C@H]2CCC(F)(F)C[C@@H]2O)cc1NC(=O)c1csc2ccccc12 [I-571]
IC50 [1]: 100 to 500 nM
IC50 [2]: 1 to 5 µM

Cc1ccccc1Nc1ncc(C(=O)NCc2ccncn2)cc1NC(=O)c1csc2ccccc12 [I-572]
IC50 [1]: 100 to 500 nM
IC50 [2]: < 1 µM

Cc1ccccc1Nc1ncc(C(=O)Nc2ncn(C)n2)cc1NC(=O)c1csc2ccccc12 [I-573]
IC50 [1]: 500 to 1000 nM
IC50 [2]: 10 to 36 µM

Cc1ccccc1Nc1ncc(C(=O)NCCn2nccn2)cc1NC(=O)c1csc2ccccc12 [I-578]
IC50 [1]: 100 to 500 nM
IC50 [2]: 10 to 36 µM

Cc1cncc(CNC(=O)c2cnc(Nc3ccccc3C)c(NC(=O)c3csc4ccccc34)c2)c1 [I-579]
IC50 [1]: ≤ 100 nM
IC50 [2]: 5 to 10 µM

Cc1ccccc1Nc1ncc(C(=O)NCC2(C#N)CC2)cc1NC(=O)c1csc2ccccc12 [I-580]
IC50 [1]: ≤ 100 nM
IC50 [2]: 1 to 5 µM

Cc1ccccc1Nc1ncc(C(=O)NC2(C)CC2)cc1NC(=O)c1csc2ccccc12 [I-581]
IC50 [1]: ≤ 100 nM
IC50 [2]: 1 to 5 µM

Cc1ccccc1Nc1ncc(C(=O)NCc2nnc3ccccn23)cc1NC(=O)c1csc2ccccc12 [I-582]
IC50 [1]: ≤ 100 nM
IC50 [2]: 5 to 10 µM

Cc1ccccc1Nc1ncc(C(=O)NCC2(O)CCOC2)cc1NC(=O)c1csc2ccccc12 (stereo not shown) [I-583]
IC50 [1]: 500 to 1000 nM
IC50 [2]: 10 to 36 µM

Cc1ccccc1Nc1ncc(C(=O)NC2CCOCC2)cc1NC(=O)c1csc2ccccc12 [I-584]
IC50 [1]: 100 to 500 nM
IC50 [2]: 5 to 10 µM

Cc1ccccc1Nc1ncc(C(=O)NC2COCC(O)C2)cc1NC(=O)c1csc2ccccc12 (stereo not shown) [I-585]
IC50 [1]: 100 to 500 nM
IC50 [2]: 10 to 36 µM

Cc1ccccc1Nc1ncc(C(=O)NCC2CCC(O)C2)cc1NC(=O)c1csc2ccccc12 (stereo not shown) [I-588]
IC50 [1]: 100 to 500 nM
IC50 [2]: 10 to 36 µM

Cc1ccccc1Nc1ncc(C(=O)N[C@@H]2COC[C@@H]2F)cc1NC(=O)c1csc2ccccc12 [I-590]
IC50 [1]: 100 to 500 nM
IC50 [2]: 5 to 10 µM

Cc1ccccc1Nc1ncc(C(=O)N[C@H]2C[C@@H](C(N)=O)C2)cc1NC(=O)c1csc2ccccc12 [I-591]
IC50 [1]: ≤ 100 nM
IC50 [2]: 1 to 5 µM

COCC(=O)N1CCC(NC(=O)c2cnc(Nc3ccccc3C)c(NC(=O)c3csc4ccccc34)c2)CC1 [I-592]
IC50 [1]: 1000 to 10000 nM
IC50 [2]: 5 to 10 µM

Cc1ccccc1Nc1ncc(C(=O)NCc2nccc3ccccc23)cc1NC(=O)c1csc2ccccc12 [I-593]
IC50 [1]: 100 to 500 nM
IC50 [2]: 10 to 36 µM

Cc1ccccc1Nc1ncc(C(=O)N[C@@H]2CCO[C@@H]2C)cc1NC(=O)c1csc2ccccc12 [I-594]
IC50 [1]: 100 to 500 nM
IC50 [2]: 5 to 10 µM

Cc1ccccc1Nc1ncc(C(=O)N[C@H]2CC[C@@H](O)C2)cc1NC(=O)c1csc2ccccc12 [I-596]
IC50 [1]: 100 to 500 nM
IC50 [2]: 1 to 5 µM

Cc1ccccc1Nc1ncc(C(=O)NCC(=O)N2CCCC2)cc1NC(=O)c1csc2ccccc12 [I-597]
IC50 [1]: 1000 to 10000 nM
IC50 [2]: 36 to 100 µM

COc1cc(CCNC(=O)c2cnc(Nc3ccccc3C)c(NC(=O)c3csc4ccccc34)c2)ccn1 [I-598]
IC50 [1]: 100 to 500 nM
IC50 [2]: 5 to 10 µM

Cc1ccccc1Nc1ncc(C(=O)NCC2(O)CC2)cc1NC(=O)c1csc2ccccc12 [I-599]
IC50 [1]: 100 to 500 nM
IC50 [2]: 5 to 10 µM

Cc1ccccc1Nc1ncc(C(=O)NCc2cn(C)nc2C)cc1NC(=O)c1csc2ccccc12 [I-601]
IC50 [1]: ≤ 100 nM
IC50 [2]: 5 to 10 µM

Cc1ccccc1Nc1ncc(C(=O)NCc2cocn2)cc1NC(=O)c1csc2ccccc12 [I-602]
IC50 [1]: 100 to 500 nM
IC50 [2]: 10 to 36 µM

Cc1ccccc1Nc1ncc(C(=O)NCC2(O)CCOCC2)cc1NC(=O)c1csc2ccccc12 [I-603]
IC50 [1]: 500 to 1000 nM
IC50 [2]: 10 to 36 µM

Cc1cc(CNC(=O)c2cnc(Nc3ccccc3C)c(NC(=O)c3csc4ccccc34)c2)no1 [I-604]
IC50 [1]: ≤ 100 nM
IC50 [2]: 1 to 5 µM

Cc1ccccc1Nc1ncc(C(=O)NC(C)c2cn[nH]c2)cc1NC(=O)c1csc2ccccc12 (stereo not shown) [I-605]
IC50 [1]: ≤ 100 nM
IC50 [2]: 1 to 5 µM

Cc1ccccc1Nc1ncc(C(=O)N2CC(C)C2)cc1NC(=O)c1csc2ccccc12 [I-607]
IC50 [1]: 100 to 500 nM
IC50 [2]: 5 to 10 µM

Cc1ccccc1Nc1ncc(C(=O)NCC2(S(C)(=O)=O)CCC2)cc1NC(=O)c1csc2ccccc12 [I-608]
IC50 [1]: 500 to 1000 nM
IC50 [2]: 10 to 36 µM

Cc1ccccc1Nc1ncc(C(=O)Nc2ccc3cn(C)nc3c2)cc1NC(=O)c1csc2ccccc12 [I-609]
IC50 [1]: ≤ 100 nM
IC50 [2]: 1 to 5 µM

Cc1ccccc1Nc1ncc(C(=O)NCC(O)C2CCCC2)cc1NC(=O)c1csc2ccccc12 (stereo not shown) [I-610]
IC50 [1]: 100 to 500 nM
IC50 [2]: 10 to 36 µM

CCn1ccc(C)c(CNC(=O)c2cnc(Nc3ccccc3C)c(NC(=O)c3csc4ccccc34)c2)c1=O [I-611]
IC50 [1]: 100 to 500 nM
IC50 [2]: 5 to 10 µM

Cc1ccccc1Nc1ncc(C(=O)NC2(C(N)=O)CC2)cc1NC(=O)c1csc2ccccc12 [I-612]
IC50 [1]: 100 to 500 nM
IC50 [2]: < 1 µM

Cc1ccccc1Nc1ncc(C(=O)N2CC(O)C2)cc1NC(=O)c1csc2ccccc12 [I-613]
IC50 [1]: 100 to 500 nM
IC50 [2]: 10 to 36 µM

Cc1ccccc1Nc1ncc(C(=O)NC(C)c2nnc3ccccn23)cc1NC(=O)c1csc2ccccc12 (stereo not shown) [I-616]
IC50 [1]: ≤ 100 nM
IC50 [2]: 1 to 5 µM
